In ChEMBL document CHEMBL1212933, “Alcoholysis of naturally occurring imides: misleading interpretation of antifungal activities” (J Nat Prod, 2010) one finds EC50 data, which are given here for one compound.

Experiment [1] deals with Penicillium griseofulvum. The experiment is described as follows: Antifungal activity against Penicillium griseofulvum. It is filed as functional, organism-based.
For experiment [2], the system named is Cladosporium herbarum. The experiment in a line: Antifungal activity against Cladosporium herbarum. It is filed as functional, organism-based.

SMILES strings stand for the structures. In brackets after ≈: the same amount, converted by molar mass.

With `CS/C=C/C(=O)N(C)C(=O)Cc1ccccc1` [PENIMIDE A], the EC50 in experiment [1] was 3 µg/mL (≈ 12 µM); in experiment [2] it was 0.9 µg/mL (≈ 3.61 µM).

Usually EC50 stands for the midpoint of the concentration-response curve. Read a high EC50 as weaker potency.
